System: T1, Xyaf313
T1 construct: gene of 1380 bp, 460 aa, about 50 kDa theoretical; C-terminal His6; codon-optimized, pPIC9K, secreted from Pichia pastoris GS115, Ni-NTA
Test: p-nitrophenol release, Michaelis-Menten nonlinear fit
Type: biochemical, Chaetomium globosum
Conditions: pH 7, 50 °C (optimal conditions); substrate 0.5-5.0 mM
Description: p-nitrophenol release, Michaelis-Menten nonlinear fit on Xyaf313

Row | Compound | Km [mM]
1 | O=[N+]([O-])c1ccc(O[C@@H]2O[C@@H](CO)[C@H](O)[C@H]2O)cc1 [4-nitrophenyl α-L-arabinofuranoside] | 5.65 ± 1.67
2 | O=[N+]([O-])c1ccc(O[C@@H]2OC[C@@H](O)[C@H](O)[C@H]2O)cc1 [ρ-nitrophenyl β-D-xylopyranoside] | 1.77 ± 1.27

Source: PMC11940195, “Characterization of a GH43 Bifunctional Glycosidase from Endophytic Chaetomium globosum and Its Potential Application in the Biotransformation of Ginsenosides” (BioTech, 2025)
